Assay results from patent US4870097A, “Pharmaceutical use of derivatives of tryptophan” (priority 1984, dated 1989).

Tests used:
[1] = system: activity of analgesic drugs; experiment: Hot plate test: potentiation of analgesic drugs; format: in vivo, rats; conditions: analgesic alone i.p. (Prop 15, Oxy 50, Asa 100 mg/kg); for Positive Total X/25: 10'-60'
Description: The method is that described by Eddy et al. (J. Pharmac. Exp. Ther. 107, 385 (1953)).
Groups of five male rats having a weight of about 150 g and which have not been fasting are used.
The animals are placed on a metal plate which is on the bottom of a transparent cylinder heated to 55°±1° C. by an azeotropic boiling mixture (1:1 acetone-ethyl formate). The time which passes between the moment at which the animal is placed on the hot plate and the moment at which it licks its feet or tries to jump out of the cylinder is defined as the reaction time. The control reaction time is measured 10 and 5 minutes before the administration of the drugs and 10, 20, 30, 45, 60, 90 minutes afterwards. The animals are left on the plate for a maximum period of 30 seconds.
The response to the administration of the product is considered positive if at least a doubling of the normal reaction time is seen. The results obtained are given in Table 2 which records the groups treated, the dose administered and the stay times on the plate expressed as the number of positive responses over the number treated.

[2] = system: analgesic activity of morphine; experiment: Tail Flick Test: increase in the analgesic effect of morphine; format: in vivo, rats; conditions: for percentage variation in the latency of the pain sensation, 10' / percentage variation in the latency of the pain sensation, 20' / percentage variation in the latency of the pain sensation, 30' / percentage variation in the latency of the pain sensation, 45' / percentage variation in the latency of the pain sensation, 60' / percentage variation in the latency of the pain sensation, 90' / M(10'-90') average percentage variation: compound 10 mg/kg i.p. + morphine 2 mg/kg (row Morphine: alone); for percentage variation in the latency of the pain sensation, 10' / percentage variation in the latency of the pain sensation, 20' / percentage variation in the latency of the pain sensation, 30' / percentage variation in the latency of the pain sensation, 45' / percentage variation in the latency of the pain sensation, 60' / percentage variation in the latency of the pain sensation, 90': ± S.E.; for M(10'-90') average percentage variation: mean 10'-90'; for Potency ratio relative to morphine alone: rat, in vivo
Description: Increase in the analgesic effect of analgesic-narcotic drugs in rats in the Tail Flick Test
The method is that described by Harris et al. (J. Pharmacol. Exp. Ther. 143 (1964) 141-148).
Male rats are used which have a weight of about 150-200 g and which have not been fasting. A point is chosen on the tail and this is irradiated by a heat source (75° C.) and the time (in seconds) for which the animal remains without moving its tail is measured.
A maximum period of time under the heat source of 8 seconds is chosen after which the animal is, in any case, removed in order to avoid tissue damage. The measurement is effected before (controls) and after treatment with the drugs.
. The percentage variation is calculated for each individual animal by the following formula: [formula] The measurements are carried out 10, 20, 30, 45, 60 and 90 minutes after treatment with the analgesics.
The results obtained are given in Table 1 which records the groups treated and the doses administered, the
average percentage variations (calculated on groups of five animals) in […]

[3] = system: guinea pig gall bladder contracted with CCK-8; experiment: Anti-CCK activity on guinea pig gall bladders in vitro; format: biochemical; conditions: CCK-8 10 ng/ml, concentration antagonising 50% of contracting effect
Description: A longitudinal strip of guinea pig gall bladder is placed in a bath of Krebs for isolated organs at a temperature of 32° C. and oxygenated continuously with an oxygen-CO2 mixture (95-5 V/V).
The […] contractions are detected by means of a force transducer and recorded.
The gall bladder is contracted with the use of a CCK-8 solution at a concentration of 10 ng/ml; the antagonistic activity of the compounds of the invention towards the contracting effect of the CCK is determined with the use of different concentrations, the ED50 value, that is the concentration of the compound in mcg/ml capable of antagonising 50% of the contracting effect of the CCK, being determined.
The results obtained are set out in the following table which gives the compounds tested and the ED50 values which are calculated by the method of regression on a test of at least three experiments for each compound studied.

[4] = system: tolerance induced by morphine; experiment: Antagonism to the development of tolerance to repeated administration of morphine HCl (tail flick); format: in vivo, rats
Description: Several of the compounds of the invention were examined to determine any capacity to antagonise the development of tolerance induced by morphine. Groups of six male rats having a weight of about 200-250 were used.
At intervals of 24 hours from the first treatment (time 0), each animal (except for the control group treated with a physiological solution) received 3 mg/kg of morphine hydrochloride i.p. together with 3 mg/kg i.p. of the compounds indicated (with the exception of the group treated solely with morphine).
The determination of the threshold for the pain stimulus was effected at 15°, 30', 45' and 60' intervals from the treatment by the "tail flick" test.

| Compound | percentage variation in the latency of the pain sensation, 10' [2] [%] | percentage variation in the latency of the pain sensation, 20' [2] [%] | percentage variation in the latency of the pain sensation, 30' [2] [%] | percentage variation in the latency of the pain sensation, 45' [2] [%] | percentage variation in the latency of the pain sensation, 60' [2] [%] | percentage variation in the latency of the pain sensation, 90' [2] [%] | M(10'-90') average percentage variation [2] [%] | Potency ratio relative to morphine alone [2] | Anti CCK-8 activity, ED50 [3] [µg/mL] | other results |
| --- | --- | --- | --- | --- | --- | --- | --- | --- | --- | --- |
| CC(=O)Oc1ccccc1C(=O)O [Acetylsalicylic acid, reference compound] |  |  |  |  |  |  |  |  |  | positive responses over the number treated, 10' [1]: 1/5; Positive Total X/25 [1]: 7; positive responses over the number treated, 20' [1]: 2/5; positive responses over the number treated, 30' [1]: 2/5; positive responses over the number treated, 45' [1]: 2/5; positive responses over the number treated, 60' [1]: 0/5 |
| O=C(N[C@@H](Cc1c[nH]c2ccccc12)C(=O)O)OCc1ccc(Br)cc1 [Compound 3] | 70.7 ± 19.7 | 90.3 ± 9.7 | 74.7 ± 16.9 | 86.2 ± 11.0 | 100.0 ± 0.0 | 53.7 ± 17.2 | 79.3 | 2.66 | 33.6 |  |
| O=C(N[C@@H](Cc1c[nH]c2ccccc12)C(=O)O)OCc1ccc(I)cc1 [Compound 4] | 62.8 ± 22.8 | 76.9 ± 14.4 | 85.3 ± 13.9 | 56.4 ± 18.2 | 48.1 ± 16.9 | 19.4 ± 11.1 | 58.2 | 1.95 | 48.2 |  |
| O=C(N[C@@H](Cc1c[nH]c2ccccc12)C(=O)O)OCc1cccc(Cl)c1 [Compound 5] | 34.5 ± 13.3 | 53.0 ± 24.8 | 62.5 ± 16.6 | 50.5 ± 17.6 | 43.7 ± 10.1 | 52.2 ± 22.2 | 50.9 | 1.71 | 23.2 |  |
| O=C(N[C@@H](Cc1c[nH]c2ccccc12)C(=O)O)OCc1ccc(Cl)c(Cl)c1 [Compound 6] | 68.6 ± 20.4 | 78.0 ± 17.9 | 80.4 ± 19.6 | 84.5 ± 11.4 | 76.3 ± 13.8 | 71.9 ± 15.2 | 78.6 | 2.57 | 16.1 |  |
| O=C(N[C@@H](Cc1c[nH]c2ccccc12)C(=O)O)OCc1ccc(C(F)(F)F)cc1 [Compound 7] | 38.3 ± 13.7 | 34.4 ± 5.7 | 44.4 ± 14.8 | 48.3 ± 14.6 | 47.2 ± 16.9 | 47.9 ± 15.4 | 43.4 | 1.45 | 108.7 |  |
| Cc1ccc(COC(=O)N[C@@H](Cc2c[nH]c3ccccc23)C(=O)O)cc1 [Compound 8] | 12.4 ± 4.9 | 38.4 ± 22.2 | 56.5 ± 20.3 | 48.0 ± 26.1 | 48.5 ± 21.5 | 54.4 ± 24.7 | 43.0 | 1.44 | 114.3 |  |
| CCc1ccc(COC(=O)N[C@@H](Cc2c[nH]c3ccccc23)C(=O)O)cc1 [Compound 9] | 46.7 ± 14.7 | 62.2 ± 16.5 | 39.6 ± 15.7 | 86.9 ± 8.0 | 46.7 ± 20.4 | 40.8 ± 22.4 | 53.8 | 1.80 | 125.4 |  |
| CN1CC[C@]23c4c5ccc(O)c4O[C@H]2[C@@H](O)C=C[C@H]3[C@H]1C5 [Morphine, morphine, reference compound] | 10.8 ± 4.0 | 54.2 ± 17.0 | 46.6 ± 21.0 | 41.7 ± 16.0 | 32.0 ± 17.0 | -6.4 ± 10.0 | 29.8 |  |  | percentage variation in the latency time, day 0 ([4]; day 0, 3 mg/kg i.p. + morphine HCl 3 mg/kg i.p. (row Morphine: alone)): 35.83%; percentage variation in the latency time, day 1 ([4]; day 1, 3 mg/kg i.p. + morphine HCl 3 mg/kg i.p. (row Morphine: alone)): 37.43%; percentage variation in the latency time, day 2 ([4]; day 2, 3 mg/kg i.p. + morphine HCl 3 mg/kg i.p. (row Morphine: alone)): 30.33%; percentage variation in the latency time, day 3 ([4]; day 3, 3 mg/kg i.p. + morphine HCl 3 mg/kg i.p. (row Morphine: alone)): 16.06%; percentage variation in the latency time, day 4 ([4]; day 4, 3 mg/kg i.p. + morphine HCl 3 mg/kg i.p. (row Morphine: alone)): 22.46%; percentage variation in the latency time, day 5 ([4]; day 5, 3 mg/kg i.p. + morphine HCl 3 mg/kg i.p. (row Morphine: alone)): 9.63%; percentage variation in the latency time, day 6 ([4]; day 6, 3 mg/kg i.p. + morphine HCl 3 mg/kg i.p. (row Morphine: alone)): 7.28%; percentage variation in the latency time, day 7 ([4]; day 7, 3 mg/kg i.p. + morphine HCl 3 mg/kg i.p. (row Morphine: alone)): 1.95%; regression line % Effect versus Day ([4]; days 0-7, 3 mg/kg + morphine (row Morphine: alone)): % Effect = - 5.34 Day + 38.72; day on which activity falls to 0 / inactive level is reached ([4]; from the straight lines of regression, groups C, D and E extrapolated): sixth |
| CCCCC1C(=O)N(c2ccccc2)N(c2ccc(O)cc2)C1=O (centres unmarked) [Oxyphenylbutazone, reference compound] |  |  |  |  |  |  |  |  |  | positive responses over the number treated, 10' [1]: 2/5; Positive Total X/25 [1]: 7; positive responses over the number treated, 20' [1]: 1/5; positive responses over the number treated, 30' [1]: 2/5; positive responses over the number treated, 45' [1]: 2/5; positive responses over the number treated, 60' [1]: 0/5 |
| CCC(=O)O[C@](Cc1ccccc1)(c1ccccc1)[C@H](C)CN(C)C [Propoxyphene, reference compound] |  |  |  |  |  |  |  |  |  | positive responses over the number treated, 10' [1]: 2/5; Positive Total X/25 [1]: 11; positive responses over the number treated, 20' [1]: 2/5; positive responses over the number treated, 30' [1]: 3/5; positive responses over the number treated, 45' [1]: 3/5; positive responses over the number treated, 60' [1]: 1/5 |
